According to US10005733B2, “N-(4-hydroxy-4-methyl-cyclohexyl)-4-phenyl-benzenesulfonamide and N-(4-hydroxy-4-methyl-cyclohexyl)-4-(2-pyridyl)-benzenesulfonamide compounds and their therapeutic use” (PIMCO 2664 LIMITED, priority 2014, dated 2018):

Tests used:
hERG ion channel = target: T1, hERG ion channel (Homo sapiens, UniProt Q12809); test: hERG Ion Channel Assay (Q-patch, hERG-CHO cells); assay type: cell-based; conditions: CHO cells stably transfected with hERG (hERG-CHO), pH 7.4, hERG tail current
T1 construct: expressed in transfected cells; host or cells: Chinese Hamster Ovary cells (hERG-CHO)
Protocol: The activity of the compounds against the hERG ion channel was tested. The assay was conducted using the automated path-clamp, Q-patch method using stably transfected Chinese Hamster Ovary cells (hERG-CHO). hERG-CHO cells were cultured in F-12 Kaighn's Nutrient Mixture medium (Invitrogen)+10% FBS at 37° C. for 1-3 days. Cells were kept at 30° C. for 24 to 48 hours prior to patch clamping in order to increase the hERG current amplitude. Subsequently, the cells were harvested by trypsinisation, and kept in Serum Free Medium (SFM) in the Q-patch cell preparation state for up to 6 hours at room temperature before being washed and re-suspended in extracellular solution and applied to the patch clamp sites for data recording.
Patch-clamp voltage protocol: After whole cell configuration was achieved, the cell was held at −80 mV. A 50 millisecond pulse to −40 mV was delivered to measure the leaking current, which was subtracted from the tail current on-line. Then the cell was depolarized to +20 mV for 2 seconds, followed by a one second pulse to −40 mV to reveal hERG tail current. This paradigm was delivered once every 5 seconds to monitor the current amplitude.
Extracellular solution: 137 mM NaCl, 4 mM KCl, 1.8 mM CaCl2, 1 mM MgCl2, 10 mM D(+)-glucose, 10 mM HePES buffer (pH adjusted to 7.4 with NaOH).
After the whole cell configuration was achieved, the extracellular solution (control) was applied first and the cell was stabilized for 2 minutes in extracellular solution. The test compound was then applied from low concentrations to high concentrations cumulatively. The cell was incubated with each test concentration for 5 minutes. During each incubation, the cell was repetitively stimulated using the voltage protocol described above, and the tail current amplitude was continuously monitored.
The degree of inhibition (%) was obtained by measuring the tail current amplitude, induced by a one second test pulse to −40 mV after a two second pulse to +20 mV, before and after incubation with the test compound. The difference in current was normalized to control and multiplied by 100 in order to obtain the percent inhibition.
Concentration (log) response curves were fitted to a logistic equation (three parameters assuming complete block of the current at very high test compound concentrations) to generate estimates of the 50% inhibitory concentration (IC50). The concentration-response relationship of each compound was constructed from the percentage reductions of current amplitude by sequential concentrations.

CYP1A2 = target: T2, CYP1A2 (Homo sapiens, UniProt P05177); test: Human Cytochrome P450 Inhibition Assay (Bactosomes), CYP1A2; assay type: in vitro ADME; conditions: recombinant Bactosomes, probe substrate, 10 minutes at 37° C.
T2 construct: purchased Cypex Ltd, Dundee, Scotland UK
T2 sequence (P05177 1-516): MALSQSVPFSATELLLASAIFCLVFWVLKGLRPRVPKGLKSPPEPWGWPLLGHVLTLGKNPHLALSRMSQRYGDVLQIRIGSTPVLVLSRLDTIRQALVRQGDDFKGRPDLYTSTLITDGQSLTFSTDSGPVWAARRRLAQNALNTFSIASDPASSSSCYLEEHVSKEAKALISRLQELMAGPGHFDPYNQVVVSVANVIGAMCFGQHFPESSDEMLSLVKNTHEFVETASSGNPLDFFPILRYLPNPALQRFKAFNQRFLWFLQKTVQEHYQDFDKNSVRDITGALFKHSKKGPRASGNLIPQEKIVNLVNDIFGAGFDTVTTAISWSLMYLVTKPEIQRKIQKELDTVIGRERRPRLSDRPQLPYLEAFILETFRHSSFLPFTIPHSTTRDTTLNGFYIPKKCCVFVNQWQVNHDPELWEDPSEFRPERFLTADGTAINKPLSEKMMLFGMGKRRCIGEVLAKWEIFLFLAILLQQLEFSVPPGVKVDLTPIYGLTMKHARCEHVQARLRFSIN
Protocol: The ability of test compounds to inhibit five of the most relevant cytochrome P450 enzymes was measured by determination of the activity of cytochrome P450 enzymes in recombinant cytochrome preparations, called Bactosomes (Cypex Ltd, Dundee, Scotland UK DD2 1NH), in the presence of a specific probe substrate. Bactosomes are a highly efficient and cost-effective source of recombinant CYP450s which have a higher specific activity of enzyme compared to other sources, such as liver microsomes. […] The following CYP450 isoforms were assayed: CYP1A2, CYP2C9, CYP2C19, CYP2D6 and CYP3A4. The study of CYP450 inhibition potential in Bactosomes is accepted as a valuable model permitting rapid prediction of potential drug-drug interactions in vivo (see, e.g., Weaver et al., 2003).
Bactosomes were obtained from a commercial source (Cypex, Scotland, UK). Test compounds were incubated with Bactosomes at 6 concentrations. Samples were incubated for 10 minutes, after which the reaction was stopped and the samples analysed by LC-MS/MS Multiple Reaction Monitoring (MRM) for the presence/amount of substrate probe.
CYP450 enzymes (final protein 75 pmol/mL for CYP1A2; 12.5 pmol/mL for CYP2C19; and 25 pmol/mL for CYP2C9, 2D6 and 3A4), 0.1 M phosphate buffer pH 7.4, probe and test compound (final concentration 50, 15.8, 5, 1.58, 0.5 and 0.158 μM; diluted from 10 mM stock solution to give a final DMSO concentration of 1%) were pre-incubated at 37° C. for 5 minutes. The reaction was initiated by the addition of 20 μL of 10 mM NADPH in phosphate buffer. The final incubation volume was 200 μL. The following control inhibitors were used for each CYP450 inhibition assay: CYP1A2: α-naphthoflavone; CYP2C9: sulfaphenazole; CYP2C19: tranylcypromine; CYP2D6: quinidine; CYP3A4: ketoconazole.
Each compound was incubated for 10 minutes at 37° C. The reactions were stopped by the addition of methanol (final composition 1:1, aqueous: methanol). The incubation plates were shaken, chilled at […] for 2 hours, and centrifuged at 3500 rpm for 15 minutes at 4° C. to precipitate the protein.
IC50 values were determined by linear transformation within Microsoft Excel.

T1 sequence (Q12809 whole entry): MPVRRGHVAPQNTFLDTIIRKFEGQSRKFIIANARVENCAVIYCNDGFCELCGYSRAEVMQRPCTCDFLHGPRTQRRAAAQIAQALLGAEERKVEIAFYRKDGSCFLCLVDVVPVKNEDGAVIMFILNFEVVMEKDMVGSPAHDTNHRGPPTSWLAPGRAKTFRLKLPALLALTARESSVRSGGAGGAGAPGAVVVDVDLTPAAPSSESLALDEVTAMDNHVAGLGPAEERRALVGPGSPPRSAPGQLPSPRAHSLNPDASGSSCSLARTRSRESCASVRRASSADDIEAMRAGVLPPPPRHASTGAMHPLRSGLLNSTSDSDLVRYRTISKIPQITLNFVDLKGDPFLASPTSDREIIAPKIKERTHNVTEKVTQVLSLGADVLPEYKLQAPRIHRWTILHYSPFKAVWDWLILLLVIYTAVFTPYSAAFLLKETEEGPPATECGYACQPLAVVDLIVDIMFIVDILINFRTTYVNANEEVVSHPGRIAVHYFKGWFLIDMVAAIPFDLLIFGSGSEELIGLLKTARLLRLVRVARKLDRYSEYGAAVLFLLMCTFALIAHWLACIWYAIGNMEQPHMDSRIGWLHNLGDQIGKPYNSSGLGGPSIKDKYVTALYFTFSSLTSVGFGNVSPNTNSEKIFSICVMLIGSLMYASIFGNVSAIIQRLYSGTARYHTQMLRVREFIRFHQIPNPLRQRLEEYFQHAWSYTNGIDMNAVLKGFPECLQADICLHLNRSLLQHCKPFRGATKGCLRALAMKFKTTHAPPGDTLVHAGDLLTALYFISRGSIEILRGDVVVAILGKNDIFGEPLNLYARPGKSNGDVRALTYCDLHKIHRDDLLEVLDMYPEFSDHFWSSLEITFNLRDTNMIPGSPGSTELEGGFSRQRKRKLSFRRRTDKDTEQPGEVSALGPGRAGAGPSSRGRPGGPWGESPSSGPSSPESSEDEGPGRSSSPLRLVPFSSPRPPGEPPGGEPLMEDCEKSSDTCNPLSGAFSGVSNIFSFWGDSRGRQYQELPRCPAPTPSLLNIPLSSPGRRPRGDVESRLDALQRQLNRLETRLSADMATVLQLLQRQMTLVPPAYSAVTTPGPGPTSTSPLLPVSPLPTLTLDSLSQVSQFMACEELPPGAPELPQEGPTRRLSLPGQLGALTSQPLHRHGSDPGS

Row | SMILES | IC50 (CYP1A2) | inhibition at 5 min, 10 µM (hERG ion channel)
1 | C[C@]1(O)CC[C@@H](NS(=O)(=O)c2ccc(-c3ccc(F)cc3F)cc2)CC1 [ABD899, reference compound] | > 25 µM | 85.2%
2 | Cc1cc(S(=O)(=O)N[C@H]2CC[C@H](O)CC2)ccc1-c1ccc(F)cc1F [ABD735, reference compound] | > 25 µM | –
3 | C[C@]1(O)CC[C@@H](NS(=O)(=O)c2ccc(-c3ccc(C#N)cc3)c(F)c2)CC1 [HMC-C-07-B, 4′-Cyano-2-fluoro-N-((1s,4s)-4-hydroxy-4-methylcyclohexyl)-[1,1′-biphenyl]-4-sulfonamide] | > 50 µM | 40%
4 | O=S(=O)(N[C@H]1CC[C@H](O)CC1)c1ccc(-c2ccc(F)cc2F)cc1 [ABD599, reference compound] | > 25 µM | 74.9%
5 | C[C@]1(O)CC[C@H](NS(=O)(=O)c2ccc(-c3ccc(F)cc3F)cc2)CC1 [ABD900] | – | 15.1%

The next lines start with results.

Row | IC50 (CYP1A2) | SMILES | inhibition at 5 min, 10 µM (hERG ion channel)
6 | 36 µM | C[C@]1(O)CC[C@H](NS(=O)(=O)c2ccc(-c3ncc(Cl)cc3C#N)cc2)CC1 [HMC-N-05-A, 4-(5-Chloro-3-cyanopyridin-2-yl)-N-((1r,4r)-4-hydroxy-4-methylcyclohexyl)benzenesulfonamide] | 35%
7 | 11 µM | C[C@]1(O)CC[C@H](NS(=O)(=O)c2ccc(-c3ccc(Cl)cc3C#N)c(Cl)c2)CC1 [HMC-C-11-A, 2,4′-Dichloro-2′-cyano-N-((1r,4r)-4-hydroxy-4-methylcyclohexyl)-[1,1′-biphenyl]-4-sulfonamide] | –
8 | > 16 µM | C[C@]1(O)CC[C@@H](NS(=O)(=O)c2ccc(-c3cc(F)c(F)cc3F)cc2)CC1 [HMC-C-10-B, 2′,4′,5′-Trifluoro-N-((1s,4s)-4-hydroxy-4-methylcyclohexyl)-[1,1′-biphenyl]-4-sulfonamide] | –
9 | 27 µM | C[C@]1(O)CC[C@H](NS(=O)(=O)c2ccc(-c3ccc(Cl)cc3C#N)c(F)c2)CC1 [HMC-C-08-A, 4′-Chloro-2′-cyano-2-fluoro-N-((1r,4r)-4-hydroxy-4-methylcyclohexyl)-[1,1′-biphenyl]-4-sulfonamide] | 29%
10 | > 50 µM | C[C@]1(O)CC[C@H](NS(=O)(=O)c2ccc(-c3ccc(C#N)cc3)c(F)c2)CC1 [HMC-C-07-A, 4′-Cyano-2-fluoro-N-((1r,4r)-4-hydroxy-4-methylcyclohexyl)-[1,1′-biphenyl]-4-sulfonamide] | 47%
11 | 23 µM | C[C@]1(O)CC[C@H](NS(=O)(=O)c2ccc(-c3ccc(C#N)cc3Cl)cc2)CC1 [HMC-C-09-A, 2′-Chloro-4′-cyano-N-((1r,4r)-4-hydroxy-4-methylcyclohexyl)-[1,1′-biphenyl]-4-sulfonamide] | 57%
